Results from patent publication US4468511A, “C-20- And C-23-Modified macrolide derivatives” (Eli Lilly and Company, priority 1983, dated 1984).
Converted amounts (≈) assume the structure as drawn. Read-outs that look alike come from different tables or passages of the source.

Key:
[1] = test system: Streptococcus pyogenes C203; test: MIC, standard agar-dilution assay; format: cell-based; conditions: agar-dilution; Streptococcus pyogenes C203; read-out: MIC
Description: (§1) Certain of the derivatives are active against some gram-negative bacteria, such as Pasteurella species. The MIC's in Table II were determined by standard agar-dilution assays. The MIC's in Table III were obtained using a conventional broth-dilution microtiter test.

[2] = test system: Streptococcus Group D X66; test: MIC, standard agar-dilution assay; format: cell-based
Description: as §1

Escherichia coli TEM = test: MIC, standard agar-dilution assay; format: cell-based; conditions: agar-dilution; Escherichia coli TEM; read-out: MIC
Outline: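 Minimum inhibitory concentrations against Escherichia coli were measured with a standard agar-dilution method. The result for each derivative is the lowest concentration that inhibits bacterial growth, given in ug/mL.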

[3] = test system: Klebsiella pneumoniae X26; test: MIC, standard agar-dilution assay; format: cell-based
Outline: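 MICs for the two Pasteurella strains and the Mycoplasma strain were read from a broth-dilution microtiter test. The Klebsiella strain was tested on agar instead.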

[4] = test system: Klebsiella pneumoniae KAE; test: MIC, standard agar-dilution assay; format: cell-based; conditions: agar-dilution; Klebsiella pneumoniae KAE; read-out: MIC
Outline: (§2)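 Minimum inhibitory concentrations are determined by conventional broth dilution in microtiter wells for Pasteurella and Mycoplasma isolates. For Klebsiella pneumoniae KAE, the standard agar-dilution assay is used.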

[5] = test system: Streptococcus pneumoniae Park I; test: MIC, standard agar-dilution assay; format: cell-based; conditions: Streptococcus pneumoniae
Description: as §1

[6] = test system: Streptococcus pyogenes 9960; test: MIC, standard agar-dilution assay; format: cell-based
Description: as §1

[7] = test system: Staphylococcus aureus V41; test: MIC, standard agar-dilution assay; format: cell-based; conditions: Staphylococcus aureus, V41
Description: as §1

Escherichia coli EC14 = test: MIC, standard agar-dilution assay; format: cell-based; conditions: agar-dilution; Escherichia coli EC14; read-out: MIC
Description: as §1

[8] = test system: Staphylococcus aureus X1.1; test: MIC, standard agar-dilution assay; format: cell-based
Outline: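 Minimum inhibitory concentration against Staphylococcus aureus strain X1.1 was measured with a standard agar-dilution method. The result is reported as the MIC in ug/mL, i.e. the lowest compound concentration in agar that prevents visible growth of this organism.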

[9] = test system: Staphylococcus epidermidis EPI1; test: microbe, parasite or virus in culture; format: cell-based
Description: (§3) The MIC's in Table II were determined by standard agar-dilution assays. The MIC's in Table III were obtained using a conventional broth-dilution microtiter test.

[10] = test system: Staphylococcus aureus S13E; test: microbe, parasite or virus in culture; format: cell-based
Description: as §3

Mycoplasma synoviae = test: MIC, conventional broth-dilution microtiter test; format: cell-based; conditions: Mycoplasmopsis synoviae; broth-dilution microtiter; Mycoplasma synoviae; read-out: MIC
Outline: as §2

Staphylococcus aureus = test: MIC, conventional broth-dilution microtiter test; format: cell-based
Description: as §1

[11] = test system: Pasteurella hemolytica 41D; test: MIC, conventional broth-dilution microtiter test; format: cell-based; conditions: broth-dilution microtiter; Pasteurella hemolytica 41D; read-out: MIC
Outline: as §2

[12] = test system: Pasteurella multocida 40G; test: MIC, conventional broth-dilution microtiter test; format: cell-based; conditions: broth-dilution microtiter; Pasteurella multocida 40G; read-out: MIC
Outline: as §2

Mycoplasma gallisepticum = test: MIC, conventional broth-dilution microtiter test; format: cell-based; conditions: Mycoplasmoides gallisepticum
Outline: as §2

Streptococcus sp. 80 = test: MIC, conventional broth-dilution microtiter test; format: cell-based
Description: as §1

[13] = test system: Pasteurella multocida 60A; test: MIC, conventional broth-dilution microtiter test; format: cell-based; conditions: broth-dilution microtiter; Pasteurella multocida 60A, Avian isolate; read-out: MIC
Outline: as §2

[14] = test system: Pasteurella multocida 17E; test: MIC, conventional broth-dilution microtiter test; format: cell-based; conditions: broth-dilution microtiter; Pasteurella multocida 17E, Bovine isolate; read-out: MIC
Outline: as §2

[15] = test system: Pasteurella hemolytica 22C; test: MIC, conventional broth-dilution microtiter test; format: cell-based; conditions: broth-dilution microtiter; Pasteurella hemolytica 22C; read-out: MIC
Outline: as §2

[16] = test system: Mycoplasma gallisepticum 34159; test: MIC, conventional broth-dilution microtiter test; format: cell-based; conditions: Mycoplasmoides gallisepticum; broth-dilution microtiter; Mycoplasma gallisepticum 34159, Resistant strain; read-out: MIC
Outline: as §2

Mycoplasma hyorhinis = test: MIC, conventional broth-dilution microtiter test; format: cell-based; conditions: broth-dilution microtiter; Mycoplasma hyorhinis; read-out: MIC
Outline: as §2

[17] = test system: Pasteurella multocida 22A; test: MIC, conventional broth-dilution microtiter test; format: cell-based; conditions: broth-dilution microtiter; Pasteurella multocida 22A; read-out: MIC
Outline: as §2

[18] = test system: Pasteurella hemolytica 23C; test: MIC, conventional broth-dilution microtiter test; format: cell-based; conditions: broth-dilution microtiter; Pasteurella hemolytica 23C; read-out: MIC
Outline: as §2

[19] = test system: Pasteurella multocida 68C; test: MIC, conventional broth-dilution microtiter test; format: cell-based; conditions: broth-dilution microtiter; Pasteurella multocida 68C; read-out: MIC
Outline: as §2

[20] = test system: Mycoplasma gallisepticum 41313; test: MIC, conventional broth-dilution microtiter test; format: cell-based; conditions: Mycoplasmoides gallisepticum; broth-dilution microtiter; Mycoplasma gallisepticum 41313, Resistant strain; read-out: MIC
Outline: as §2

[21] = test system: Streptococcus pyogenes C203; test: Protection of mice experimentally infected with S. pyogenes C203; format: in vivo; conditions: mg/kg × 2, doses given 1 and 4 hours postinfection
Description: Some of the derivatives of this invention have shown in vivo antimicrobial activity against experimentally-induced infections in laboratory animals. When two doses of test compound were administered to mice experimentally infected with S. pyogenes C203, the activity observed was measured as an ED50 value [effective dose in mg/kg to protect 50% of the test animals: see Warren Wick, et al., J. Bacteriol. 81, 233-235 (1961)].

[22] = test system: Haemophilus influenzae 76; test: MIC, standard agar-dilution assay; format: cell-based
Description: as §3

[23] = test system: Staphylococcus epidermidis EPI2; test: MIC, standard agar-dilution assay; format: cell-based
Description: as §3

[24] = test system: Staphylococcus aureus X400; test: MIC, standard agar-dilution assay; format: cell-based; conditions: agar-dilution; Staphylococcus aureus X400, Methicillin-resistant strain; read-out: MIC
Description: as §3

[25] = test system: Haemophilus influenzae C.L.; test: MIC, standard agar-dilution assay; format: cell-based; conditions: agar-dilution; Haemophilus influenzae C.L., Ampicillin-sensitive strain; read-out: MIC
Description: as §3

[26] = C203, mice, oral, read-out: ED50 Oral
[27] = C203, sc, mice, subcutaneous, read-out: ED50 Subcutaneous

CCC1CC(C)C(=O)C=CC(C)=CC(COc2cccc(N(C)C)c2)C(CC)OC(=O)CC(O)C(C)C1OC1OC(C)C(O)C(N(C)C)C1O (stereo not drawn) [Compound 44, 23-O-(m-Dimethylaminophenyl)-20-deoxy-20-dihydro-OMT]
MIC [1]: 4 µg/mL (≈ 5.69 µM)
MIC ([2]; agar-dilution, Streptococcus Group D X66, read-out: MIC): 2 µg/mL (≈ 2.85 µM)
MIC (Escherichia coli TEM): > 128 µg/mL
MIC ([3]; Klebsiella pneumoniae, X26): 32 µg/mL (≈ 45.5 µM)
MIC [4]: > 128 µg/mL
MIC [5]: 0.5 µg/mL (≈ 0.711 µM)
MIC ([6]; agar-dilution, Streptococcus 9960, read-out: MIC): 2 µg/mL (≈ 2.85 µM)
MIC [7]: 1 µg/mL (≈ 1.42 µM)
MIC (Escherichia coli EC14): > 128 µg/mL
MIC ([8]; Staphylococcus aureus, X1.1): 1 µg/mL (≈ 1.42 µM)
MIC ([9]; Staphylococcus epidermidis, EPI1): 1 µg/mL (≈ 1.42 µM)
MIC [10]: 1 µg/mL (≈ 1.42 µM)
MIC (Mycoplasma synoviae): 12.5 µg/mL (≈ 17.8 µM)
MIC (Staphylococcus aureus): 1.56 µg/mL (≈ 2.22 µM)
MIC [11]: > 50 µg/mL
MIC [12]: 25 µg/mL (≈ 35.6 µM)
MIC (Mycoplasma gallisepticum): 3.12 µg/mL (≈ 4.44 µM)
MIC (Streptococcus sp. 80; Streptococcus, SP.80): 3.12 µg/mL (≈ 4.44 µM)
MIC [13]: 25 µg/mL (≈ 35.6 µM)
MIC [14]: 50 µg/mL (≈ 71.1 µM)
MIC [15]: > 50 µg/mL
MIC [16]: 12.5 µg/mL (≈ 17.8 µM)
MIC (Mycoplasma hyorhinis): 50 µg/mL (≈ 71.1 µM)
MIC [17]: 50 µg/mL (≈ 71.1 µM)
MIC [18]: > 50 µg/mL
MIC [19]: 25 µg/mL (≈ 35.6 µM)
MIC [20]: 12.5 µg/mL (≈ 17.8 µM)
ED50 [21, 26]: > 50 mg/kg
ED50 [21, 27]: > 10 mg/kg
MIC ([22]; agar-dilution, Haemophilus influenzae 76, Ampicillin-resistant strain, read-out: MIC): 16 µg/mL (≈ 22.8 µM)
MIC ([23]; Staphylococcus epidermidis, EPI2): 0.5 µg/mL (≈ 0.711 µM)
MIC [24]: 2 µg/mL (≈ 2.85 µM)
MIC [25]: 16 µg/mL (≈ 22.8 µM)

CCC1OC(=O)CC(O)C(C)C(OC2OC(C)C(OC3CC(C)(O)C(O)C(C)O3)C(N(C)C)C2O)C(CCNCCc2ccccc2)CC(C)C(=O)C=CC(C)=CC1CO (stereo not drawn) [Compound 16]
MIC [1]: 8 µg/mL (≈ 9.44 µM)
MIC [2]: 32 µg/mL (≈ 37.8 µM)
MIC (Escherichia coli TEM): > 128 µg/mL
MIC ([3]; agar-dilution, Klebsiella pneumoniae X26, read-out: MIC): 128 µg/mL (≈ 151 µM)
MIC [4]: > 128 µg/mL
MIC [5]: 4 µg/mL (≈ 4.72 µM)
MIC [6]; 9960: 32 µg/mL (≈ 37.8 µM)
MIC [7]: 32 µg/mL (≈ 37.8 µM)
MIC (Escherichia coli EC14): > 128 µg/mL
MIC ([8]; agar-dilution, Staphylococcus aureus X1.1, read-out: MIC): 16 µg/mL (≈ 18.9 µM)
MIC ([9]; agar-dilution, Staphylococcus epidermidis EPI1, read-out: MIC): 16 µg/mL (≈ 18.9 µM)
MIC [10]: 32 µg/mL (≈ 37.8 µM)
MIC (Mycoplasma synoviae): 6.25 µg/mL (≈ 7.38 µM)
MIC (Staphylococcus aureus; broth-dilution microtiter, read-out: MIC): 12.5 µg/mL (≈ 14.8 µM)
MIC [11]: > 50 µg/mL
MIC [12]: 50 µg/mL (≈ 59 µM)
MIC (Mycoplasma gallisepticum; broth-dilution microtiter, Mycoplasma gallisepticum, read-out: MIC): 6.25 µg/mL (≈ 7.38 µM)
MIC (Streptococcus sp. 80; broth-dilution microtiter, Streptococcus sp. 80, read-out: MIC): 12.5 µg/mL (≈ 14.8 µM)
MIC [13]: > 50 µg/mL
MIC [14]: > 50 µg/mL
MIC [15]: > 50 µg/mL
MIC [16]: > 50 µg/mL
MIC (Mycoplasma hyorhinis): > 50 µg/mL
MIC [17]: > 50 µg/mL
MIC [18]: > 50 µg/mL
MIC [19]: > 50 µg/mL
MIC [20]: > 50 µg/mL
ED50 [21, 26]: 88 mg/kg
ED50 [21, 27]: 10.4 mg/kg
MIC ([22]; Haemophilus influenzae, 76): 16 µg/mL (≈ 18.9 µM)
MIC ([23]; agar-dilution, Staphylococcus epidermidis EPI2, read-out: MIC): 64 µg/mL (≈ 75.6 µM)
MIC [24]: 64 µg/mL (≈ 75.6 µM)
MIC [25]: 64 µg/mL (≈ 75.6 µM)
